# Test system: MCF-10A
# Conditions: 72 h
# Procedure, shortened: (§1)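 The plates used were 384-well plates holding compound at 5 concentrations in 10-fold steps across a compound-specific 10,000-fold range, into which breast cancer cell lines were seeded in 20 µl suspension. Following 72 h incubation, CellTox Green fluorescence was read at 485/520 nm, and CellTiter-Glo luminescence was read after 10 min at room temperature. Normalisation on each plate used 0.1 % DMSO and a positive kill control. Dose-response curves gave the EC50, which was censored at the top concentration.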
row,Structure (SMILES),"EC50, CellTiter-Glo [nM]"
1,NC(=O)Nc1cc(-c2cccc(F)c2)sc1C(=O)N[C@H]1CCCNC1 [AZD7762],499
2,Cc1ccc(C(=O)Nc2ccc(CN3CCN(C)CC3)c(C(F)(F)F)c2)cc1C#Cc1cnc2cccnn12 [Ponatinib],643
3,CN[C@@H]1C[C@H]2O[C@@](C)([C@@H]1OC)n1c3ccccc3c3c4c(c5c6ccccc6n2c5c31)C(=O)N[C@H]4O [UCN-01],45.7
4,C#Cc1cccc(Nc2ncnc3cc(OCCOC)c(OCCOC)cc23)c1 [Erlotinib],96
5,CCCCCCCCCCCCCCCCCCOP(=O)([O-])OC1CC[N+](C)(C)CC1 [Perifosine],> 2500
6,N#CCNC(=O)c1ccc(-c2ccnc(Nc3ccc(N4CCOCC4)cc3)n2)cc1 [Momelotinib],6590
7,CO[C@H]1/C=C\C=C(/C)C(=O)NC2=CC(=O)C(NCCN(C)C)=C(C[C@@H](C)C[C@H](OC)[C@H](O)[C@@H](C)/C=C(\C)[C@@H]1OC(N)=O)C2=O [Alvespimycin],40.8
8,COc1cc2ncnc(Nc3ccc(F)c(Cl)c3)c2cc1NC(=O)/C=C/CN1CCCCC1 [Dacomitinib],6.27

# Test system: MDA-MB-231
# Conditions: 72 h
# Procedure, shortened: as §1
row,"EC50, CellTiter-Glo [nM]",Structure (SMILES)
1,172,Oc1nc(-c2ccc(C(F)(F)F)cc2)nc2c1CSCC2 [XAV-939]
2,193,NC(=O)Nc1cc(-c2cccc(F)c2)sc1C(=O)N[C@H]1CCCNC1 [AZD7762]
3,382,Cc1ccc(C(=O)Nc2ccc(CN3CCN(C)CC3)c(C(F)(F)F)c2)cc1C#Cc1cnc2cccnn12 [Ponatinib]
4,34.4,CN[C@@H]1C[C@H]2O[C@@](C)([C@@H]1OC)n1c3ccccc3c3c4c(c5c6ccccc6n2c5c31)C(=O)N[C@H]4O [UCN-01]
5,1850,COc1cc([C@@H]2c3cc4c(cc3[C@@H](O[C@@H]3O[C@@H]5CO[C@@H](C)O[C@H]5[C@H](O)[C@H]3O)[C@H]3COC(=O)[C@H]23)OCO4)cc(OC)c1O [Etoposide]
6,2430,O=C(CCCCCCC(=O)Nc1ccc([C@H]2O[C@@H](CSc3nc(-c4ccccc4)c(-c4ccccc4)o3)C[C@@H](c3ccc(CO)cc3)O2)cc1)NO [Tubacin]
7,5190,N#CCNC(=O)c1ccc(-c2ccnc(Nc3ccc(N4CCOCC4)cc3)n2)cc1 [Momelotinib]
8,46.2,CO[C@H]1/C=C\C=C(/C)C(=O)NC2=CC(=O)C(NCCN(C)C)=C(C[C@@H](C)C[C@H](OC)[C@H](O)[C@@H](C)/C=C(\C)[C@@H]1OC(N)=O)C2=O [Alvespimycin]

# Test system: MDA-MB-436
# Conditions: 72 h
# Procedure, shortened: as §1
row,"EC50, CellTiter-Glo [nM]",Structure (SMILES)
1,237,NC(=O)Nc1cc(-c2cccc(F)c2)sc1C(=O)N[C@H]1CCCNC1 [AZD7762]
2,265,Cc1ccc(C(=O)Nc2ccc(CN3CCN(C)CC3)c(C(F)(F)F)c2)cc1C#Cc1cnc2cccnn12 [Ponatinib]
3,88.1,CN[C@@H]1C[C@H]2O[C@@](C)([C@@H]1OC)n1c3ccccc3c3c4c(c5c6ccccc6n2c5c31)C(=O)N[C@H]4O [UCN-01]
4,7110,C#Cc1cccc(Nc2ncnc3cc(OCCOC)c(OCCOC)cc23)c1 [Erlotinib]
5,> 2500,CCCCCCCCCCCCCCCCCCOP(=O)([O-])OC1CC[N+](C)(C)CC1 [Perifosine]
6,137,Cn1c(Nc2ccc(C(F)(F)F)cc2)nc2cc(Oc3ccnc(-c4ncc(C(F)(F)F)[nH]4)c3)ccc21 [RAF265]
7,977,COc1cc([C@@H]2c3cc4c(cc3[C@@H](O[C@@H]3O[C@@H]5CO[C@@H](C)O[C@H]5[C@H](O)[C@H]3O)[C@H]3COC(=O)[C@H]23)OCO4)cc(OC)c1O [Etoposide]
8,11.3,CO[C@H]1/C=C\C=C(/C)C(=O)NC2=CC(=O)C(NCCN(C)C)=C(C[C@@H](C)C[C@H](OC)[C@H](O)[C@@H](C)/C=C(\C)[C@@H]1OC(N)=O)C2=O [Alvespimycin]

# Test system: MDA-MB-453
# Conditions: 72 h
# Procedure, shortened: as §1
row,"EC50, CellTiter-Glo [nM]",Structure (SMILES)
1,672,NC(=O)Nc1cc(-c2cccc(F)c2)sc1C(=O)N[C@H]1CCCNC1 [AZD7762]
2,> 1000,Cc1ccc(C(=O)Nc2ccc(CN3CCN(C)CC3)c(C(F)(F)F)c2)cc1C#Cc1cnc2cccnn12 [Ponatinib]
3,277,CN[C@@H]1C[C@H]2O[C@@](C)([C@@H]1OC)n1c3ccccc3c3c4c(c5c6ccccc6n2c5c31)C(=O)N[C@H]4O [UCN-01]
4,1750,O=C(CCCCCCC(=O)Nc1ccc([C@H]2O[C@@H](CSc3nc(-c4ccccc4)c(-c4ccccc4)o3)C[C@@H](c3ccc(CO)cc3)O2)cc1)NO [Tubacin]
5,19.8,CO[C@H]1/C=C\C=C(/C)C(=O)NC2=CC(=O)C(NCCN(C)C)=C(C[C@@H](C)C[C@H](OC)[C@H](O)[C@@H](C)/C=C(\C)[C@@H]1OC(N)=O)C2=O [Alvespimycin]
6,74.8,COc1cc2ncnc(Nc3ccc(F)c(Cl)c3)c2cc1NC(=O)/C=C/CN1CCCCC1 [Dacomitinib]

# Test system: MFM-223
# Conditions: 72 h
# Procedure, shortened: as §1
row,Structure (SMILES),"EC50, CellTiter-Glo [nM]"
1,Cc1ccc(C(=O)Nc2ccc(CN3CCN(C)CC3)c(C(F)(F)F)c2)cc1C#Cc1cnc2cccnn12 [Ponatinib],31.8
2,CN[C@@H]1C[C@H]2O[C@@](C)([C@@H]1OC)n1c3ccccc3c3c4c(c5c6ccccc6n2c5c31)C(=O)N[C@H]4O [UCN-01],137
3,Cc1ccc(-n2nc(C(C)(C)C)cc2NC(=O)Nc2ccc(OCCN3CCOCC3)c3ccccc23)cc1 [Doramapimod],2800
4,Cn1c(Nc2ccc(C(F)(F)F)cc2)nc2cc(Oc3ccnc(-c4ncc(C(F)(F)F)[nH]4)c3)ccc21 [RAF265],291
5,O=C(CCCCCCC(=O)Nc1ccc([C@H]2O[C@@H](CSc3nc(-c4ccccc4)c(-c4ccccc4)o3)C[C@@H](c3ccc(CO)cc3)O2)cc1)NO [Tubacin],3590
6,CO[C@H]1/C=C\C=C(/C)C(=O)NC2=CC(=O)C(NCCN(C)C)=C(C[C@@H](C)C[C@H](OC)[C@H](O)[C@@H](C)/C=C(\C)[C@@H]1OC(N)=O)C2=O [Alvespimycin],17.6

# Test system: SK-BR-3
# Conditions: 72 h
# Procedure, shortened: as §1
row,"EC50, CellTiter-Glo [nM]",Structure (SMILES)
1,458,NC(=O)Nc1cc(-c2cccc(F)c2)sc1C(=O)N[C@H]1CCCNC1 [AZD7762]
2,57.6,CN[C@@H]1C[C@H]2O[C@@](C)([C@@H]1OC)n1c3ccccc3c3c4c(c5c6ccccc6n2c5c31)C(=O)N[C@H]4O [UCN-01]
3,3440,C#Cc1cccc(Nc2ncnc3cc(OCCOC)c(OCCOC)cc23)c1 [Erlotinib]
4,1210,COc1cc([C@@H]2c3cc4c(cc3[C@@H](O[C@@H]3O[C@@H]5CO[C@@H](C)O[C@H]5[C@H](O)[C@H]3O)[C@H]3COC(=O)[C@H]23)OCO4)cc(OC)c1O [Etoposide]
5,8750,O=C(CCCCCCC(=O)Nc1ccc([C@H]2O[C@@H](CSc3nc(-c4ccccc4)c(-c4ccccc4)o3)C[C@@H](c3ccc(CO)cc3)O2)cc1)NO [Tubacin]
6,> 10000,O=C(O)c1ccc(-c2c[nH]c3ncc(-c4ccccc4)cc23)cc1C1CCCC1
7,254,C=C(c1ccc(C(=O)O)cc1)c1cc2c(cc1C)C(C)(C)CCC2(C)C [Bexarotene]
8,2900,N#CCNC(=O)c1ccc(-c2ccnc(Nc3ccc(N4CCOCC4)cc3)n2)cc1 [Momelotinib]
9,11,CO[C@H]1/C=C\C=C(/C)C(=O)NC2=CC(=O)C(NCCN(C)C)=C(C[C@@H](C)C[C@H](OC)[C@H](O)[C@@H](C)/C=C(\C)[C@@H]1OC(N)=O)C2=O [Alvespimycin]
10,26.3,COc1cc2ncnc(Nc3ccc(F)c(Cl)c3)c2cc1NC(=O)/C=C/CN1CCCCC1 [Dacomitinib]

# Test system: CAL-51
# Conditions: 72 h
# Procedure, shortened: (§2)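 Breast cancer cell lines in 20 µl suspension were seeded onto 384-well plates that already held compound dissolved in 5 µl medium and were incubated for 72 h. Viability was measured by adding 2.5 µl CellTiter-Blue for 2 h at 37 °C and reading fluorescence at 560/590 nm. Each plate was normalised to vehicle and a positive kill control and checked by Z'-factor. EC50 was taken from a fitted percent-inhibition dose-response curve, censored at the highest concentration, and rows with a drug sensitivity score of zero were removed.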
row,Structure (SMILES),"EC50, CellTiter-Blue viability [nM]"
1,Cc1ccc(C(=O)Nc2ccc(CN3CCN(C)CC3)c(C(F)(F)F)c2)cc1C#Cc1cnc2cccnn12 [Ponatinib],869
2,CN[C@@H]1C[C@H]2O[C@@](C)([C@@H]1OC)n1c3ccccc3c3c4c(c5c6ccccc6n2c5c31)C(=O)N[C@H]4O [UCN-01],140
3,C[C@@H](Oc1cc(-c2cnn(C3CCNCC3)c2)cnc1N)c1c(Cl)ccc(F)c1Cl [Crizotinib],3140
4,CNCc1ccc(-c2[nH]c3cc(F)cc4c3c2CCNC4=O)cc1 [Rucaparib],8870
5,Cn1c(Nc2ccc(C(F)(F)F)cc2)nc2cc(Oc3ccnc(-c4ncc(C(F)(F)F)[nH]4)c3)ccc21 [RAF265],915
6,COc1cc([C@@H]2c3cc4c(cc3[C@@H](O[C@@H]3O[C@@H]5CO[C@@H](C)O[C@H]5[C@H](O)[C@H]3O)[C@H]3COC(=O)[C@H]23)OCO4)cc(OC)c1O [Etoposide],367
7,Cc1ccc(C(=O)N(CCCN)[C@@H](c2oc3cc(Cl)ccc3c(=O)c2Cc2ccccc2)C(C)C)cc1,6.53
8,CCN(CCCOc1ccc2c(Nc3cc(CC(=O)Nc4cccc(F)c4)[nH]n3)ncnc2c1)CCOP(=O)(O)O [Barasertib],37.9
9,CO[C@H]1/C=C\C=C(/C)C(=O)NC2=CC(=O)C(NCCN(C)C)=C(C[C@@H](C)C[C@H](OC)[C@H](O)[C@@H](C)/C=C(\C)[C@@H]1OC(N)=O)C2=O [Alvespimycin],53.3
10,NC(=O)Nc1cc(-c2cccc(F)c2)sc1C(=O)N[C@H]1CCCNC1 [AZD 7762],564

# Test system: CAL-85-1
# Conditions: 72 h
# Procedure, shortened: as §2
row,Structure (SMILES),"EC50, CellTiter-Blue viability [nM]"
1,CN[C@@H]1C[C@H]2O[C@@](C)([C@@H]1OC)n1c3ccccc3c3c4c(c5c6ccccc6n2c5c31)C(=O)N[C@H]4O [UCN-01],175
2,C[C@@H](Oc1cc(-c2cnn(C3CCNCC3)c2)cnc1N)c1c(Cl)ccc(F)c1Cl [Crizotinib],6530
3,C#Cc1cccc(Nc2ncnc3cc(OCCOC)c(OCCOC)cc23)c1 [Erlotinib],754
4,Cc1ccc(-n2nc(C(C)(C)C)cc2NC(=O)Nc2ccc(OCCN3CCOCC3)c3ccccc23)cc1 [Doramapimod],27.3
5,COc1cc([C@@H]2c3cc4c(cc3[C@@H](O[C@@H]3O[C@@H]5CO[C@@H](C)O[C@H]5[C@H](O)[C@H]3O)[C@H]3COC(=O)[C@H]23)OCO4)cc(OC)c1O [Etoposide],2550
6,Cc1ccc(C(=O)N(CCCN)[C@@H](c2oc3cc(Cl)ccc3c(=O)c2Cc2ccccc2)C(C)C)cc1,4.95
7,CCN(CCCOc1ccc2c(Nc3cc(CC(=O)Nc4cccc(F)c4)[nH]n3)ncnc2c1)CCOP(=O)(O)O [Barasertib],9.39
8,CO[C@H]1/C=C\C=C(/C)C(=O)NC2=CC(=O)C(NCCN(C)C)=C(C[C@@H](C)C[C@H](OC)[C@H](O)[C@@H](C)/C=C(\C)[C@@H]1OC(N)=O)C2=O [Alvespimycin],35.1
9,NC(=O)Nc1cc(-c2cccc(F)c2)sc1C(=O)N[C@H]1CCCNC1 [AZD 7762],215

# Test system: DU-4475
# Conditions: 72 h
# Procedure, shortened: as §2
row,Structure (SMILES),"EC50, CellTiter-Blue viability [nM]"
1,CN[C@@H]1C[C@H]2O[C@@](C)([C@@H]1OC)n1c3ccccc3c3c4c(c5c6ccccc6n2c5c31)C(=O)N[C@H]4O [UCN-01],212
2,C[C@@H](Oc1cc(-c2cnn(C3CCNCC3)c2)cnc1N)c1c(Cl)ccc(F)c1Cl [Crizotinib],4940
3,Cn1c(Nc2ccc(C(F)(F)F)cc2)nc2cc(Oc3ccnc(-c4ncc(C(F)(F)F)[nH]4)c3)ccc21 [RAF265],328
4,COc1cc([C@@H]2c3cc4c(cc3[C@@H](O[C@@H]3O[C@@H]5CO[C@@H](C)O[C@H]5[C@H](O)[C@H]3O)[C@H]3COC(=O)[C@H]23)OCO4)cc(OC)c1O [Etoposide],180
5,Cc1ccc(C(=O)N(CCCN)[C@@H](c2oc3cc(Cl)ccc3c(=O)c2Cc2ccccc2)C(C)C)cc1,8.62
6,CCN(CCCOc1ccc2c(Nc3cc(CC(=O)Nc4cccc(F)c4)[nH]n3)ncnc2c1)CCOP(=O)(O)O [Barasertib],375
7,CO[C@H]1/C=C\C=C(/C)C(=O)NC2=CC(=O)C(NCCN(C)C)=C(C[C@@H](C)C[C@H](OC)[C@H](O)[C@@H](C)/C=C(\C)[C@@H]1OC(N)=O)C2=O [Alvespimycin],15.3
8,NC(=O)Nc1cc(-c2cccc(F)c2)sc1C(=O)N[C@H]1CCCNC1 [AZD 7762],619

# Test system: HDQ-P1
# Conditions: 72 h
# Procedure, shortened: as §2
row,Structure (SMILES),"EC50, CellTiter-Blue viability [nM]"
1,Oc1nc(-c2ccc(C(F)(F)F)cc2)nc2c1CSCC2 [XAV-939],2090
2,Cc1ccc(C(=O)Nc2ccc(CN3CCN(C)CC3)c(C(F)(F)F)c2)cc1C#Cc1cnc2cccnn12 [Ponatinib],307
